The values below come from US12304890B2, “R-type pyridyloxycarboxylic acid, salt and ester derivative thereof, and preparation method therefor, and herbicidal composition and application thereof” (Qingdao Kingagroot Chemical Compound Co., Ltd., priority 2018, dated 2025).

Common to all, as to type: in vivo
Assay [1] relates to Digitaria sanguinalis. The assay can be described thus: Post-emergence test experiment, Digitaria sanguinalis. The note with it: 1000 g a.i./ha, 3 weeks in greenhouse, fresh weight inhibition. On the procedure:
(§1) The above described growth inhibition rate is fresh weight inhibition rate.
(§2) Post-emergence test experiment: Monocotyledonous and dicotyledonous weed seeds and main crop seeds (i. e. wheat, corn, rice, soybean, cotton, oilseed, millet and sorghum.) were put into a plastic pot loaded with soil. Then covered with 0.5-2 cm soil, the seeds were allowed to grow in good greenhouse environment. The test plants were treated at 2-3 leaf stage 2 weeks after sowing. The test compounds of the invention were dissolved with acetone respectively, then added with tween-80, and using 1.5 liters per hectare of an emulsible concentrate of methyl oleate as a synergist, and diluted by certain amount of water to certain concentration. The solution was sprayed to the plants with a sprayer. Then the plants were cultured for 3 weeks in the greenhouse, and the experiment result of weed controlling effect was listed in tables 4-5.

Assay [2] concerns Monocotyledonous and dicotyledonous weed seeds and main crop seeds. The assay can be described thus: Post-emergence test experiment, other weeds and crops (Table 4, 1000 g a.i./ha). The note with it: 3 weeks in greenhouse, fresh weight inhibition. Put shortly:
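Weed and crop seeds (wheat, corn, rice, soybean, cotton, oilseed, millet, sorghum) sown in soil pots in a greenhouse and sprayed at 2-3 leaf stage, 2 weeks after sowing. Compound in acetone/tween-80 with methyl oleate concentrate (1.5 L/ha) as synergist. Effect recorded as fresh-weight growth inhibition rate.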

The test system of assay [3] is Echinochloa crusgalli. The experiment in a line: Post-emergence test experiment, Echinochloa crusgalli. Particulars: 1000 g a.i./ha, 3 weeks in greenhouse, fresh weight inhibition. As to the method:
as §1, §2

`CC(Oc1nc(F)c(Cl)c(N)c1Cl)C(=O)OC[N+](=O)[O-]` (stereo not shown) [Compound 2-268]: the “Activity level (growth inhibition rate), Digitaria sanguinalis” value in assay [1] is 5 (Level 5: the growth inhibition rate is greater than 85%). In assay [2], the “Activity level (growth inhibition rate), Abutilon theophrasti Medic.” value is recorded as 5 (Level 5: the growth inhibition rate is greater than 85%); the “Activity level (growth inhibition rate), Galium aparine” value was 5 (Level 5: the growth inhibition rate is greater than 85%); the “Activity level (growth inhibition rate), Monochoria Vaginalis” value was 5 (Level 5: the growth inhibition rate is greater than 85%). In assay [3], the “Activity level (growth inhibition rate), Echinochloa crusgalli” value is recorded as 5 (Level 5: the growth inhibition rate is greater than 85%).
Turning to `C#CCOC(=O)C(C)Oc1nc(F)c(Cl)c(N)c1Cl` (stereo not shown) [Compound 2-275], the “Activity level (growth inhibition rate), Digitaria sanguinalis” value in assay [1] is 5 (Level 5: the growth inhibition rate is greater than 85%). Also, in assay [2], the “Activity level (growth inhibition rate), Abutilon theophrasti Medic.” value is 5 (Level 5: the growth inhibition rate is greater than 85%); the “Activity level (growth inhibition rate), Galium aparine” value is 5 (Level 5: the growth inhibition rate is greater than 85%); the “Activity level (growth inhibition rate), Monochoria Vaginalis” value is listed as 5 (Level 5: the growth inhibition rate is greater than 85%). Further, the “Activity level (growth inhibition rate), Echinochloa crusgalli” value in assay [3] is 5 (Level 5: the growth inhibition rate is greater than 85%).
Take `CCCCCCCCCCCCSC(=O)[C@@H](C)Oc1nc(F)c(Cl)c(N)c1Cl` [Compound 2-236]: the “Activity level (growth inhibition rate), Digitaria sanguinalis” value in assay [1] was 5 (Level 5: the growth inhibition rate is greater than 85%). In addition, in assay [2], the “Activity level (growth inhibition rate), Abutilon theophrasti Medic.” value is reported as 5 (Level 5: the growth inhibition rate is greater than 85%); the “Activity level (growth inhibition rate), Galium aparine” value is listed as 5 (Level 5: the growth inhibition rate is greater than 85%); the “Activity level (growth inhibition rate), Monochoria Vaginalis” value was 5 (Level 5: the growth inhibition rate is greater than 85%). In addition, the “Activity level (growth inhibition rate), Echinochloa crusgalli” value in assay [3] is 5 (Level 5: the growth inhibition rate is greater than 85%).
As for `C[C@@H](Oc1nc(F)c(Cl)c(N)c1Cl)C(=O)OCc1cccc(C#N)c1` [Compound 2-335], the “Activity level (growth inhibition rate), Digitaria sanguinalis” value in assay [1] is given as 5 (Level 5: the growth inhibition rate is greater than 85%). Moreover, in assay [2], the “Activity level (growth inhibition rate), Abutilon theophrasti Medic.” value was 5 (Level 5: the growth inhibition rate is greater than 85%); the “Activity level (growth inhibition rate), Galium aparine” value is recorded as 5 (Level 5: the growth inhibition rate is greater than 85%); the “Activity level (growth inhibition rate), Monochoria Vaginalis” value is 5 (Level 5: the growth inhibition rate is greater than 85%). Besides, the “Activity level (growth inhibition rate), Echinochloa crusgalli” value in assay [3] is reported as 5 (Level 5: the growth inhibition rate is greater than 85%).
In the case of `CCC(C)(C)OC(=O)C(C)Oc1nc(F)c(Cl)c(N)c1Cl` (stereo not shown) [Compound 2-99], in assay [1], the “Activity level (growth inhibition rate), Digitaria sanguinalis” value is recorded as 5 (Level 5: the growth inhibition rate is greater than 85%). Moreover, in assay [2], the “Activity level (growth inhibition rate), Abutilon theophrasti Medic.” value is reported as 5 (Level 5: the growth inhibition rate is greater than 85%); the “Activity level (growth inhibition rate), Galium aparine” value is 5 (Level 5: the growth inhibition rate is greater than 85%); the “Activity level (growth inhibition rate), Monochoria Vaginalis” value is reported as 5 (Level 5: the growth inhibition rate is greater than 85%). The “Activity level (growth inhibition rate), Echinochloa crusgalli” value in assay [3] is given as 5 (Level 5: the growth inhibition rate is greater than 85%).
In the case of `COC(=O)[C@@H](C)Oc1nc(F)c(Cl)c(NCc2ccc(C(F)(F)F)o2)c1Cl` [Compound 2-387], in assay [1], the “Activity level (growth inhibition rate), Digitaria sanguinalis” value is on record as 5 (Level 5: the growth inhibition rate is greater than 85%). In assay [2], the “Activity level (growth inhibition rate), Abutilon theophrasti Medic.” value is reported as 5 (Level 5: the growth inhibition rate is greater than 85%); the “Activity level (growth inhibition rate), Galium aparine” value is recorded as 5 (Level 5: the growth inhibition rate is greater than 85%); the “Activity level (growth inhibition rate), Monochoria Vaginalis” value is listed as 5 (Level 5: the growth inhibition rate is greater than 85%). Also, the “Activity level (growth inhibition rate), Echinochloa crusgalli” value in assay [3] is reported as 5 (Level 5: the growth inhibition rate is greater than 85%).
For the compound `CC(C)C(C)SC(=O)[C@@H](C)Oc1nc(F)c(Cl)c(N)c1Cl` (stereo partly shown) [Compound 2-96], the “Activity level (growth inhibition rate), Digitaria sanguinalis” value in assay [1] is recorded as 5 (Level 5: the growth inhibition rate is greater than 85%). Also, in assay [2], the “Activity level (growth inhibition rate), Abutilon theophrasti Medic.” value was 5 (Level 5: the growth inhibition rate is greater than 85%); the “Activity level (growth inhibition rate), Galium aparine” value was 5 (Level 5: the growth inhibition rate is greater than 85%); the “Activity level (growth inhibition rate), Monochoria Vaginalis” value is 5 (Level 5: the growth inhibition rate is greater than 85%). In addition, the “Activity level (growth inhibition rate), Echinochloa crusgalli” value in assay [3] is 5 (Level 5: the growth inhibition rate is greater than 85%).
`Cc1cc(OC(=O)[C@@H](C)Oc2nc(F)c(Cl)c(N)c2Cl)n(C)n1` [Compound 2-352]: the “Activity level (growth inhibition rate), Digitaria sanguinalis” value in assay [1] was 5 (Level 5: the growth inhibition rate is greater than 85%). Also, in assay [2], the “Activity level (growth inhibition rate), Abutilon theophrasti Medic.” value is 5 (Level 5: the growth inhibition rate is greater than 85%); the “Activity level (growth inhibition rate), Galium aparine” value is 5 (Level 5: the growth inhibition rate is greater than 85%); the “Activity level (growth inhibition rate), Monochoria Vaginalis” value is listed as 5 (Level 5: the growth inhibition rate is greater than 85%). Also, in assay [3], the “Activity level (growth inhibition rate), Echinochloa crusgalli” value is listed as 5 (Level 5: the growth inhibition rate is greater than 85%).
Take `C[C@@H](Oc1nc(F)c(Cl)c(N)c1Cl)C(=O)OCCF` [Compound 2-276]: the “Activity level (growth inhibition rate), Digitaria sanguinalis” value in assay [1] was 5 (Level 5: the growth inhibition rate is greater than 85%). Further, in assay [2], the “Activity level (growth inhibition rate), Abutilon theophrasti Medic.” value is recorded as 5 (Level 5: the growth inhibition rate is greater than 85%); the “Activity level (growth inhibition rate), Galium aparine” value is on record as 5 (Level 5: the growth inhibition rate is greater than 85%); the “Activity level (growth inhibition rate), Monochoria Vaginalis” value was 5 (Level 5: the growth inhibition rate is greater than 85%). The “Activity level (growth inhibition rate), Echinochloa crusgalli” value in assay [3] is recorded as 5 (Level 5: the growth inhibition rate is greater than 85%).
In the case of `CC(Oc1nc(F)c(Cl)c(N)c1Cl)C(=O)O.N` (stereo not shown) [Compound 2-3], in assay [1], the “Activity level (growth inhibition rate), Digitaria sanguinalis” value is 5 (Level 5: the growth inhibition rate is greater than 85%). Further, in assay [2], the “Activity level (growth inhibition rate), Abutilon theophrasti Medic.” value is on record as 5 (Level 5: the growth inhibition rate is greater than 85%); the “Activity level (growth inhibition rate), Galium aparine” value is on record as 5 (Level 5: the growth inhibition rate is greater than 85%); the “Activity level (growth inhibition rate), Monochoria Vaginalis” value is reported as 5 (Level 5: the growth inhibition rate is greater than 85%). In addition, the “Activity level (growth inhibition rate), Echinochloa crusgalli” value in assay [3] is 5 (Level 5: the growth inhibition rate is greater than 85%).
Take `CC(C)OC(=O)[C@@H](C)Oc1nc(F)c(Cl)c(N)c1Cl` [Compound 2-75]: the “Activity level (growth inhibition rate), Digitaria sanguinalis” value in assay [1] is reported as 5 (Level 5: the growth inhibition rate is greater than 85%). In assay [2], the “Activity level (growth inhibition rate), Abutilon theophrasti Medic.” value is recorded as 5 (Level 5: the growth inhibition rate is greater than 85%); the “Activity level (growth inhibition rate), Galium aparine” value is 5 (Level 5: the growth inhibition rate is greater than 85%); the “Activity level (growth inhibition rate), Monochoria Vaginalis” value is recorded as 5 (Level 5: the growth inhibition rate is greater than 85%). For the same compound, in assay [3], the “Activity level (growth inhibition rate), Echinochloa crusgalli” value is reported as 5 (Level 5: the growth inhibition rate is greater than 85%).
In the case of `C[C@@H](Oc1nc(F)c(Cl)c(N)c1Cl)C(=O)OCC(F)(F)F` [Compound 2-281], the “Activity level (growth inhibition rate), Digitaria sanguinalis” value in assay [1] is given as 5 (Level 5: the growth inhibition rate is greater than 85%). Besides, in assay [2], the “Activity level (growth inhibition rate), Abutilon theophrasti Medic.” value is on record as 5 (Level 5: the growth inhibition rate is greater than 85%); the “Activity level (growth inhibition rate), Galium aparine” value is 5 (Level 5: the growth inhibition rate is greater than 85%); the “Activity level (growth inhibition rate), Monochoria Vaginalis” value was 5 (Level 5: the growth inhibition rate is greater than 85%). In assay [3], the “Activity level (growth inhibition rate), Echinochloa crusgalli” value is reported as 5 (Level 5: the growth inhibition rate is greater than 85%).
Turning to `CC(Oc1nc(F)c(Cl)c(N)c1Cl)C(=O)OC1CCC1` (stereo not shown) [Compound 2-264], the “Activity level (growth inhibition rate), Digitaria sanguinalis” value in assay [1] is listed as 5 (Level 5: the growth inhibition rate is greater than 85%). In assay [2], the “Activity level (growth inhibition rate), Abutilon theophrasti Medic.” value was 5 (Level 5: the growth inhibition rate is greater than 85%); the “Activity level (growth inhibition rate), Galium aparine” value is 5 (Level 5: the growth inhibition rate is greater than 85%); the “Activity level (growth inhibition rate), Monochoria Vaginalis” value is given as 5 (Level 5: the growth inhibition rate is greater than 85%). Moreover, the “Activity level (growth inhibition rate), Echinochloa crusgalli” value in assay [3] is 5 (Level 5: the growth inhibition rate is greater than 85%).
On to `C[C@@H](Oc1nc(F)c(Cl)c(N)c1Cl)C(=O)OCc1ccsc1` [Compound 2-351], for which the “Activity level (growth inhibition rate), Digitaria sanguinalis” value in assay [1] is 5 (Level 5: the growth inhibition rate is greater than 85%). In assay [2], the “Activity level (growth inhibition rate), Abutilon theophrasti Medic.” value is reported as 5 (Level 5: the growth inhibition rate is greater than 85%); the “Activity level (growth inhibition rate), Galium aparine” value was 5 (Level 5: the growth inhibition rate is greater than 85%); the “Activity level (growth inhibition rate), Monochoria Vaginalis” value was 5 (Level 5: the growth inhibition rate is greater than 85%). In addition, the “Activity level (growth inhibition rate), Echinochloa crusgalli” value in assay [3] was 5 (Level 5: the growth inhibition rate is greater than 85%).
